Reference: ChEMBL document CHEMBL1201862, “PubChem BioAssay data set” (2004)
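Five concentrations, 48 hours, 96-well plates. At the GI50, growth is halved.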 The source made the active and inactive calls. Rule as the data show it: active = GI50 up to about 1.1 µM and inactive = higher.

How the values were obtained:
Experiment in all cases: inhibition of tumour cell growth, NCI panel, 48 h
DMS-114 = system: DMS-114
KM-20L2 = system: KM-20L2
HOP-18 = system: HOP-18
LXFL 529 = system: LXFL 529
XF498 = system: XF498
SNB-78 = system: SNB-78

Measured: GI50

O=C(Nc1ccccc1[N+](=O)[O-])/C(=N/Nc1cccc(Cl)c1)c1c(O)c2ccccc2oc1=O
inactive: DMS-114 16.2 µM | KM-20L2 > 100 µM | HOP-18 > 100 µM | LXFL 529 31 µM

O=c1[nH]c(=O)n(C2CC(O)C(CO)O2)cc1C(F)(C(F)(F)F)C(F)(F)F (centres undefined)
inactive: DMS-114 > 100 µM | XF498 > 100 µM | KM-20L2 > 100 µM | HOP-18 84.5 µM | LXFL 529 > 100 µM | SNB-78 > 100 µM

CCCCN(CC)C(=O)C(=O)Cc1nc2ccc(C(=O)c3ccccc3)cc2nc1O
inactive: DMS-114 53.7 µM | KM-20L2 31.7 µM | LXFL 529 47.1 µM | SNB-78 49.5 µM

O=C1CSc2ccncc2N1
inactive: DMS-114 > 100 µM | XF498 > 100 µM | KM-20L2 > 100 µM | LXFL 529 > 100 µM

COc1nc(NC2OC(COC(C)=O)C(OC(C)=O)C(OC(C)=O)C2OC(C)=O)c2c(OC(C)=O)c(C)c(=O)oc2n1 (centres undefined)
inactive: DMS-114 > 100 µM | XF498 > 100 µM | KM-20L2 > 100 µM | HOP-18 > 100 µM | LXFL 529 > 100 µM | SNB-78 > 100 µM

COC1CC(OC)C(O)C(CO)O1 (centres undefined)
inactive: XF498 > 100 µM | KM-20L2 > 100 µM | HOP-18 > 100 µM | LXFL 529 > 100 µM | SNB-78 > 100 µM

O=C(Cc1c(C(=O)Nc2ccccc2)sc(C(=O)Nc2ccccc2)c1CC(=O)Nc1ccccc1)Nc1ccccc1
inactive: DMS-114 > 100 µM | XF498 > 100 µM | KM-20L2 > 100 µM | HOP-18 68.9 µM | LXFL 529 > 100 µM | SNB-78 > 100 µM

CCOC(=O)c1sc2c(C(=O)OCC)n3cc(C)cc(C)c3c2c1O
inactive: DMS-114 37.6 µM | KM-20L2 > 100 µM | LXFL 529 > 100 µM | SNB-78 > 100 µM

NC(=O)NNC(=O)NC12CC3CC(CC(C3)C1)C2
inactive: DMS-114 > 100 µM | XF498 > 100 µM | KM-20L2 > 100 µM | HOP-18 > 100 µM | LXFL 529 > 100 µM | SNB-78 > 100 µM

CCOC(=O)C12CCCC1(O)N(NC(=O)c1ccccc1)C(C)=C2C(=O)OC (centres undefined)
inactive: KM-20L2 > 100 µM | HOP-18 > 100 µM | LXFL 529 > 100 µM | SNB-78 > 100 µM

CCCNC(=S)NNC(=O)CSc1nc(-c2ccccc2)c(-c2ccccc2)[nH]1
inactive: DMS-114 > 100 µM | XF498 47.4 µM | KM-20L2 84.1 µM | LXFL 529 27.9 µM | SNB-78 > 100 µM

COc1cc2c(oc(=O)c3c4oc([Si](C)(C)C)cc4cc(OC)c23)c2cccc(O)c12
inactive: DMS-114 > 100 µM | XF498 > 100 µM | KM-20L2 > 100 µM | HOP-18 > 100 µM | LXFL 529 > 100 µM

CC(C)CC12CC3CCC(CNC1=O)C32C (centres undefined)
inactive: DMS-114 78 µM | XF498 > 100 µM | HOP-18 > 100 µM | LXFL 529 > 100 µM | SNB-78 > 100 µM
